Reference: patent US9993494B2, “Compositions and methods for treating fibrotic disease” (eFFECTOR Therapeutics, Inc., priority 2014, dated 2018)

System: normal human lung fibroblasts
Assay: Ribosomal profiling: translational efficiency in TGFβ-treated fibroblasts
Type: cell-based
Details: TGFβ-treated fibroblasts
Method in brief: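 Genome-wide RPF and total RNA libraries (ARTseq, RNA-Seq) were made from lysates of cycloheximide-treated, PBS-washed cells. After trimming and human-genome mapping, per-gene coding-region counts were compared between RPF and RNA for translational efficiency. Genes scoring low in either fraction were dropped.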

SMILES: CC(C)n1nc(-c2cc3cc(O)ccc3[nH]2)c2c(N)ncnc21 [PP242]
- renormalizing the translational profile of DNASE1L1 (ENSG00000013563): − (− = <0.9)
- renormalizing the translational profile of ADAMTS6 (ENSG00000049192): − (− = <0.9)
- renormalizing the translational profile of LETMD1 (ENSG00000050426): − (− = <0.9)
- renormalizing the translational profile of PLEKHA5 (ENSG00000052126): − (− = <0.9)
- renormalizing the translational profile of EIF4B (ENSG00000063046): + (+ = 0.9 to 1.5)
- renormalizing the translational profile of RPL18 (ENSG00000063177): + (+ = 0.9 to 1.5)
- renormalizing the translational profile of HIPK2 (ENSG00000064393): − (− = <0.9)
- renormalizing the translational profile of ASPM (ENSG00000066279): + (+ = 0.9 to 1.5)
- renormalizing the translational profile of RASSF1 (ENSG00000068028): − (− = <0.9)
- renormalizing the translational profile of PABPC1 (ENSG00000070756): − (− = <0.9)
- renormalizing the translational profile of RPL31 (ENSG00000071082): + (+ = 0.9 to 1.5)
- renormalizing the translational profile of PLD1 (ENSG00000075651): − (− = <0.9)
- renormalizing the translational profile of EDN1 (ENSG00000078401): − (− = <0.9)
- renormalizing the translational profile of AURKA (ENSG00000087586): − (− = <0.9)
- renormalizing the translational profile of EPB41L1 (ENSG00000088367): − (− = <0.9)
- renormalizing the translational profile of RPL6 (ENSG00000089009): − (− = <0.9)
- renormalizing the translational profile of P2RX7 (ENSG00000089041): + (+ = 0.9 to 1.5)
- renormalizing the translational profile of RPLP0 (ENSG00000089157): − (− = <0.9)
- renormalizing the translational profile of IGBP1 (ENSG00000089289): − (− = <0.9)
- renormalizing the translational profile of IRAK3 (ENSG00000090376): − (− = <0.9)
- renormalizing the translational profile of PABPC4 (ENSG00000090621): − (− = <0.9)
- renormalizing the translational profile of FMO2 (ENSG00000094963): +++ (+++ = >2.0)
- renormalizing the translational profile of ACOT7 (ENSG00000097021): − (− = <0.9)
- renormalizing the translational profile of ATP5D (ENSG00000099624): − (− = <0.9)
- renormalizing the translational profile of LGALS1 (ENSG00000100097): − (− = <0.9)
- renormalizing the translational profile of EIF3L (ENSG00000100129): − (− = <0.9)
- renormalizing the translational profile of RPL3 (ENSG00000100316): − (− = <0.9)
- renormalizing the translational profile of CEP192 (ENSG00000101639): − (− = <0.9)
- renormalizing the translational profile of AMMECR1 (ENSG00000101935): − (− = <0.9)
- renormalizing the translational profile of PLP2 (ENSG00000102007): − (− = <0.9)
- renormalizing the translational profile of EIF3E (ENSG00000104408): + (+ = 0.9 to 1.5)
- renormalizing the translational profile of EEF1D (ENSG00000104529): − (− = <0.9)
- renormalizing the translational profile of C19orf53 (ENSG00000104979): − (− = <0.9)
- renormalizing the translational profile of GLTSCR2 (ENSG00000105373): + (+ = 0.9 to 1.5)
- renormalizing the translational profile of RAB3D (ENSG00000105514): + (+ = 0.9 to 1.5)
- renormalizing the translational profile of RPL18A (ENSG00000105640): + (+ = 0.9 to 1.5)
- renormalizing the translational profile of COMP (ENSG00000105664): − (− = <0.9)
- renormalizing the translational profile of GLCCI1 (ENSG00000106415): + (+ = 0.9 to 1.5)
- renormalizing the translational profile of CORO2A (ENSG00000106789): − (− = <0.9)
- renormalizing the translational profile of GDF10 (ENSG00000107623): − (− = <0.9)
- renormalizing the translational profile of RPL28 (ENSG00000108107): − (− = <0.9)
- renormalizing the translational profile of RPL19 (ENSG00000108298): − (− = <0.9)
- renormalizing the translational profile of RASD1 (ENSG00000108551): − (− = <0.9)
- renormalizing the translational profile of NAT9 (ENSG00000109065): − (− = <0.9)
- renormalizing the translational profile of RPL34 (ENSG00000109475): − (− = <0.9)
- renormalizing the translational profile of CRYAB (ENSG00000109846): − (− = <0.9)
- renormalizing the translational profile of GAPDH (ENSG00000111640): + (+ = 0.9 to 1.5)
- renormalizing the translational profile of C12orf57 (ENSG00000111678): − (− = <0.9)
- renormalizing the translational profile of MDFI (ENSG00000112559): − (− = <0.9)
- renormalizing the translational profile of HBEGF (ENSG00000113070): − (− = <0.9)
- renormalizing the translational profile of RPL24 (ENSG00000114391): − (− = <0.9)
- renormalizing the translational profile of EEF1B2 (ENSG00000114942): − (− = <0.9)
- renormalizing the translational profile of IFIH1 (ENSG00000115267): + (+ = 0.9 to 1.5)
- renormalizing the translational profile of DPH5 (ENSG00000117543): − (− = <0.9)
- renormalizing the translational profile of PPL (ENSG00000118898): − (− = <0.9)
- renormalizing the translational profile of PLEKHG1 (ENSG00000120278): − (− = <0.9)
- renormalizing the translational profile of LIAS (ENSG00000121897): − (− = <0.9)
- renormalizing the translational profile of GPSM2 (ENSG00000121957): − (− = <0.9)
- renormalizing the translational profile of RPL21 (ENSG00000122026): − (− = <0.9)
- renormalizing the translational profile of RPL5 (ENSG00000122406): + (+ = 0.9 to 1.5)
- renormalizing the translational profile of INHBA (ENSG00000122641): − (− = <0.9)
- renormalizing the translational profile of CIT (ENSG00000122966): − (− = <0.9)
- renormalizing the translational profile of RPL23 (ENSG00000125691): − (− = <0.9)
- renormalizing the translational profile of LAMP5 (ENSG00000125869): − (− = <0.9)
- renormalizing the translational profile of NECAB3 (ENSG00000125967): − (− = <0.9)
- renormalizing the translational profile of COX7C (ENSG00000127184): − (− = <0.9)
- renormalizing the translational profile of LIF (ENSG00000128342): − (− = <0.9)
- renormalizing the translational profile of MTUS1 (ENSG00000129422): + (+ = 0.9 to 1.5)
- renormalizing the translational profile of ARHGEF6 (ENSG00000129675): − (− = <0.9)
- renormalizing the translational profile of RPL36 (ENSG00000130255): − (− = <0.9)
- renormalizing the translational profile of GDF15 (ENSG00000130513): − (− = <0.9)
- renormalizing the translational profile of ASS1 (ENSG00000130707): − (− = <0.9)
- renormalizing the translational profile of EIF2S3 (ENSG00000130741): − (− = <0.9)
- renormalizing the translational profile of RPL27 (ENSG00000131469): − (− = <0.9)
- renormalizing the translational profile of MATN3 (ENSG00000132031): − (− = <0.9)
- renormalizing the translational profile of PPARG (ENSG00000132170): − (− = <0.9)
- renormalizing the translational profile of RARRES3 (ENSG00000133321): − (− = <0.9)
- renormalizing the translational profile of BIVM (ENSG00000134897): + (+ = 0.9 to 1.5)
- renormalizing the translational profile of ATP5G2 (ENSG00000135390): + (+ = 0.9 to 1.5)
- renormalizing the translational profile of KRT7 (ENSG00000135480): − (− = <0.9)
- renormalizing the translational profile of HNRNPA1 (ENSG00000135486): + (+ = 0.9 to 1.5)
- renormalizing the translational profile of IL6 (ENSG00000136244): − (− = <0.9)
- renormalizing the translational profile of RPL35 (ENSG00000136942): − (− = <0.9)
- renormalizing the translational profile of NOV (ENSG00000136999): − (− = <0.9)
- renormalizing the translational profile of IER3 (ENSG00000137331): − (− = <0.9)
- renormalizing the translational profile of DDX60 (ENSG00000137628): − (− = <0.9)
- renormalizing the translational profile of RPLP1 (ENSG00000137818): − (− = <0.9)
- renormalizing the translational profile of PAQR5 (ENSG00000137819): − (− = <0.9)
- renormalizing the translational profile of AOX1 (ENSG00000138356): − (− = <0.9)
- renormalizing the translational profile of FGF5 (ENSG00000138675): ++ (++ = 1.5 to 2.0)
- renormalizing the translational profile of PDE5A (ENSG00000138735): − (− = <0.9)
- renormalizing the translational profile of GAS2L3 (ENSG00000139354): − (− = <0.9)
- renormalizing the translational profile of DIAPH3 (ENSG00000139734): − (− = <0.9)
- renormalizing the translational profile of MYO19 (ENSG00000141140): − (− = <0.9)
- renormalizing the translational profile of RPL13A (ENSG00000142541): − (− = <0.9)
- renormalizing the translational profile of RPL11 (ENSG00000142676): − (− = <0.9)
- renormalizing the translational profile of ACTA1 (ENSG00000143632): − (− = <0.9)
- renormalizing the translational profile of PLEKHA6 (ENSG00000143850): − (− = <0.9)
- renormalizing the translational profile of RPL32 (ENSG00000144713): − (− = <0.9)
- renormalizing the translational profile of RPL37 (ENSG00000145592): − (− = <0.9)
- renormalizing the translational profile of BTF3 (ENSG00000145741): − (− = <0.9)
- renormalizing the translational profile of HIGD2A (ENSG00000146066): + (+ = 0.9 to 1.5)
- renormalizing the translational profile of CREB5 (ENSG00000146592): − (− = <0.9)
- renormalizing the translational profile of DENND2A (ENSG00000146966): − (− = <0.9)
- renormalizing the translational profile of RPL10 (ENSG00000147403): − (− = <0.9)
- renormalizing the translational profile of EIF3H (ENSG00000147677): − (− = <0.9)
- renormalizing the translational profile of RPL7A (ENSG00000148303): − (− = <0.9)
- renormalizing the translational profile of EIF3M (ENSG00000149100): − (− = <0.9)
- renormalizing the translational profile of JPH2 (ENSG00000149596): − (− = <0.9)
- renormalizing the translational profile of FAU (ENSG00000149806): − (− = <0.9)
- renormalizing the translational profile of CCDC102B (ENSG00000150636): − (− = <0.9)
- renormalizing the translational profile of FRMD4A (ENSG00000151474): − (− = <0.9)
- renormalizing the translational profile of HOMER1 (ENSG00000152413): − (− = <0.9)
- renormalizing the translational profile of PLEKHH2 (ENSG00000152527): − (− = <0.9)
- renormalizing the translational profile of ANKH (ENSG00000154122): − (− = <0.9)
- renormalizing the translational profile of ABCA6 (ENSG00000154262): − (− = <0.9)
- renormalizing the translational profile of OBSCN (ENSG00000154358): − (− = <0.9)
- renormalizing the translational profile of ADAMTS5 (ENSG00000154736): − (− = <0.9)
- renormalizing the translational profile of OXA1L (ENSG00000155463): − (− = <0.9)
- renormalizing the translational profile of C9orf85 (ENSG00000155621): + (+ = 0.9 to 1.5)
- renormalizing the translational profile of RPL30 (ENSG00000156482): − (− = <0.9)
- renormalizing the translational profile of EEF1A1 (ENSG00000156508): + (+ = 0.9 to 1.5)
- renormalizing the translational profile of NRG1 (ENSG00000157168): − (− = <0.9)
- renormalizing the translational profile of ADAMTS4 (ENSG00000158859): − (− = <0.9)
- renormalizing the translational profile of RPL8 (ENSG00000161016): − (− = <0.9)
- renormalizing the translational profile of RPL26 (ENSG00000161970): − (− = <0.9)
- renormalizing the translational profile of RPL29 (ENSG00000162244): − (− = <0.9)
- renormalizing the translational profile of CAMK2N1 (ENSG00000162545): − (− = <0.9)
- renormalizing the translational profile of IGFBP7 (ENSG00000163453): − (− = <0.9)
- renormalizing the translational profile of RPL22L1 (ENSG00000163584): − (− = <0.9)
- renormalizing the translational profile of RPL9 (ENSG00000163682): − (− = <0.9)
